One series addresses Angiopoietin-1 receptor (Homo sapiens, UniProt Q02763). Briefly: Binding affinity to TIE2 (unknown origin) assessed as dissociation constant by KINOME scan assay.
The target of series [1] is Epithelial discoidin domain-containing receptor 1 (Homo sapiens, UniProt Q08345). Briefly: Binding affinity to DDR1 (unknown origin) assessed as dissociation constant by KINOME scan assay.
The subject of series [2] is SMA-560. Description: Cytotoxicity against mouse SMA-560 cells assessed as reduction in metabolic activity at 0.001 to 100 uM incubated for 72 hrs by MTT assay. In kind it is functional, cell-based. As to conditions: dose 0.001-100 µM.
Series [3] has as its system SMA-497. Description: Induction of cell cycle arrest in mouse SMA-497 cells assessed as accumulation at G0/G1 phase at 0.1 uM incubated for 72 hrs by propidium iodide/RNase staining based flow cytomtery (Rvb= 76%). The series is classed as functional.
In series [4] the test system is SMA-560. Briefly: Induction of cell cycle arrest in mouse SMA-560 cells assessed as accumulation at S phase at 0.1 uM incubated for 72 hrs by propidium iodide/RNase staining based flow cytomtery (Rvb= 2%). The series is classed as functional.
The test system of series [5] is SMA-497. Description: Induction of apoptosis in mouse SMA-497 cells assessed as necrotic cells at 0.1 uM incubated for 72 hrs by Annexin V-FITC/PI staining based flow cytometric analysis (reference value: 14.7%). The series is classed as functional. On the technique in general: In flow cytometry, cells or beads pass a laser one at a time.
Series [6] deals with SMA-497. Briefly: Induction of apoptosis in mouse SMA-497 cells assessed as late apoptotic cells at 0.1 uM incubated for 72 hrs by Annexin V-FITC/PI staining based flow cytometric analysis (reference value: 1.86%). The series is classed as functional.
The test system of series [7] is SMA-560. Description: Induction of apoptosis in mouse SMA-560 cells assessed as late apoptotic cells at 0.1 uM incubated for 72 hrs by Annexin V-FITC/PI staining based flow cytometric analysis (reference value: 1.83%). The series is classed as functional.
In series [8] the test system is SMA-560. Briefly: Induction of apoptosis in mouse SMA-560 cells assessed as live cells at 0.1 uM incubated for 72 hrs by Annexin V-FITC/PI staining based flow cytometric analysis (reference value: 84.6%). In kind it is functional.
For series [9], the system named is GL261. Briefly: In vivo inhibition of TIE-2 in C57Bl/6 mouse xenografted with mouse GL261 cells assessed as decrease in TIE-2 expression in brain blood vessels at 100 mg/kg,po daily by immunohistochemistry analysis. The series is classed as functional, organism-based.
Series [10] deals with SMA-497. Description: Antitumor activity against mouse SMA-497 cells xenografted in VM/Dk mouse assessed as decrease in number of CD31-positive intra-tumoral vessels in tumor at 100 mg/kg,po daily by immunohistochemistry analysis. In kind it is functional, organism-based.
The next series deals with SMA-540. Description: Antitumor activity against mouse SMA-540 cells xenografted in VM/Dk mouse assessed as decrease in number of CD31-positive intra-tumoral vessels in tumor at 100 mg/kg,po daily by immunohistochemistry analysis. The series is classed as functional, organism-based.
For series [11], the system named is GL261. Description: Antitumor activity against mouse GL261 cells xenografted in C57Bl/6 mouse assessed as increase in number of tumor-infiltrating CD11b positive monocytes/microglia in tumor at 100 mg/kg,po daily by immunohistochemistry analysis. In kind it is functional, organism-based.
In series [12] the test system is GL261. Briefly: Antitumor activity against mouse GL261 cells xenografted in C57Bl/6 mouse assessed as tumor cell proliferation at 100 mg/kg,po daily by Ki67 staining based immunohistochemistry analysis. The series is classed as functional, organism-based.
The subject of series [13] is SMA-560. Briefly: Antitumor activity against mouse SMA-560 cells xenografted in VM/Dk mouse assessed as tumor cell proliferation at 100 mg/kg,po daily by Ki67 staining based immunohistochemistry analysis. The series is classed as functional, organism-based.
Series [14] relates to GL261. Briefly: Antitumor activity against mouse GL261 cells xenografted in C57Bl/6 mouse assessed as decrease in tumor volume at 100 mg/kg,po daily by H and E staining based microscopy. The series is classed as functional, organism-based.
A short description of series [15]: Toxicity in C57Bl/6 mouse xenografted with mouse GL261 cells assessed as survival rate at 100 mg/kg,po daily (Rvb=13%). The series is classed as organism-based. As to conditions: in vivo.
The nature of series [16]: Toxicity in VM/Dk mouse xenografted with mouse SMA-540 cells assessed as survival rate at 100 mg/kg,po daily (Rvb=>60%). The series is classed as organism-based. As to conditions: in vivo.
Series [17] concerns SMA-497. Description: In vivo inhibition of TIE-2 in VM/Dk mouse xenografted with mouse SMA-497 cells assessed as decrease in TIE-2 expression in brain blood vessels at 100 mg/kg,po daily with 12 Gy irradition after 2days of treatment initiation by immunohistochemistry analysis. The series is classed as functional, organism-based.
Series [18] has as its system SMA-497. Briefly: Antitumor activity against mouse SMA-497 cells xenografted in VM/Dk mouse assessed as decrease in tumor volume at 100 mg/kg,po daily with 12 Gy irradition after 2days of treatment initiation by H and E staining based microscopy. The series is classed as functional, organism-based.

Active and inactive are the calls of the source. The calls are words filed in the database; no cut-off is given here.

Sequence of Angiopoietin-1 receptor (Q02763 whole entry, the tested form may be a part): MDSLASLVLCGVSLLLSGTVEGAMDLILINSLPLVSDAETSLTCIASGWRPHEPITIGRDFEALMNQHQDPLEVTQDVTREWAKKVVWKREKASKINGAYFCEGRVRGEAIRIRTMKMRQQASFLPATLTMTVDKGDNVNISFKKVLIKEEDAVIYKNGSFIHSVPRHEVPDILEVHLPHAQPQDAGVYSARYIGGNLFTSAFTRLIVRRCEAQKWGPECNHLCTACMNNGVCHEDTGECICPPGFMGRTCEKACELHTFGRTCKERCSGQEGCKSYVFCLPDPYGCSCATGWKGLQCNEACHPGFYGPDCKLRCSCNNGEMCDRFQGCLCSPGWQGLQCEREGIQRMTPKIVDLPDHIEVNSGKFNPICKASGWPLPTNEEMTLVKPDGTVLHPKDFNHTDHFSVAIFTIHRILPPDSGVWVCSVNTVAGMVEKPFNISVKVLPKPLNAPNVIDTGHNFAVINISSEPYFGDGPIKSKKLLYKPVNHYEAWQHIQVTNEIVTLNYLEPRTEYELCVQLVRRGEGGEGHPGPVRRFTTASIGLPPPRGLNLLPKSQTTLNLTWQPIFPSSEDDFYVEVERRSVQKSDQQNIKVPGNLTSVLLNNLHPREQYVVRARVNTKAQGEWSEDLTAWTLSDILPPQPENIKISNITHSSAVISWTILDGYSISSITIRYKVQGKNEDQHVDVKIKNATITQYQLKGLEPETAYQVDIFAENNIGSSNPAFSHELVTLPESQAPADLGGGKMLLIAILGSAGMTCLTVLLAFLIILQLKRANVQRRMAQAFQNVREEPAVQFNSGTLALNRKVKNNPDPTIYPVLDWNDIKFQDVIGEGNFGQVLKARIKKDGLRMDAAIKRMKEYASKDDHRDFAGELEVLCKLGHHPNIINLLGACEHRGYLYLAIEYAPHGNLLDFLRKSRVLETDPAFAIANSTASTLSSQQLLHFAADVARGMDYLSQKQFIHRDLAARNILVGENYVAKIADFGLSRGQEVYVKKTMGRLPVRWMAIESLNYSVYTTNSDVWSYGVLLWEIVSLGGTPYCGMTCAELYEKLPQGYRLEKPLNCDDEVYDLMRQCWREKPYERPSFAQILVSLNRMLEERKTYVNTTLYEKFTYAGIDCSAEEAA
Sequence of Epithelial discoidin domain-containing receptor 1 (Q08345 whole entry, the tested form may be a part): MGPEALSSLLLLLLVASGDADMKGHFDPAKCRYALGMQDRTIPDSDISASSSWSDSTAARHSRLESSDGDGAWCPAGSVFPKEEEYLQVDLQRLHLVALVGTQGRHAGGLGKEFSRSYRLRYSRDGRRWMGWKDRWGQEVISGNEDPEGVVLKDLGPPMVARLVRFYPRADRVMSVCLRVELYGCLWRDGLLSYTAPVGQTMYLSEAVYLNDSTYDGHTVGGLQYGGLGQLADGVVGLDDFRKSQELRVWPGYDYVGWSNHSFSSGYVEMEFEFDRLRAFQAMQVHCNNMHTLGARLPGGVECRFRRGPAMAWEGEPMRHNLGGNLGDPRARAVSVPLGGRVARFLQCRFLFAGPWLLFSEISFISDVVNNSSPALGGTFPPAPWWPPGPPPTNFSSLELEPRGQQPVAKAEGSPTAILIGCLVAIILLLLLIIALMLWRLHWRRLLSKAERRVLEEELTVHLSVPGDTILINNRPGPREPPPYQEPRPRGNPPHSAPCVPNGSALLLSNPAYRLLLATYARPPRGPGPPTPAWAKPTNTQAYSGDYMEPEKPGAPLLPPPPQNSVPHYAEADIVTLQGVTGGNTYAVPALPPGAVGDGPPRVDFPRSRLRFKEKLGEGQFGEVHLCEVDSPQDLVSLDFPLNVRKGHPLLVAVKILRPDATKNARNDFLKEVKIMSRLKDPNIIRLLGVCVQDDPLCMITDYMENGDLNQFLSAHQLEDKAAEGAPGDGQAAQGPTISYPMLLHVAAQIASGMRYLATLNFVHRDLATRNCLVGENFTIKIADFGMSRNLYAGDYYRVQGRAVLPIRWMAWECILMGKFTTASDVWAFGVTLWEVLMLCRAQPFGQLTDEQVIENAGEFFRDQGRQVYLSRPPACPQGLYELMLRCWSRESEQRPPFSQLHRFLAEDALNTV

As to `Cc1cc(C)c(-n2ccn3nc(-c4cccnc4)cc23)cc1NC(=O)c1cc(C#N)cc(S(F)(F)(F)(F)F)c1` [BAY-826], the Kd on Angiopoietin-1 receptor was determined as 1.6 nM; in [1], 0.4 nM. The result with SMA-560 [2], with SMA-497 [10], with SMA-540, with GL261 [11], in the series with GL261 [12] and in the series with SMA-560 [13] was inactive. Besides, the outcome in the series with GL261 [14] and in the series on SMA-497 [18] was inactive. The Activity in the series with SMA-497 [3] stood at 66%; in the series on SMA-560 [4], 3%; in the series on SMA-497 [5] it was 18.3%; in the series with SMA-497 [6], 0.3%; in the series on SMA-560 [7] it was 0.66%; in the series on SMA-560 [8] it was 90.5%. Besides, the inhibition entry in the series on GL261 [9] and with SMA-497 [17] was “Active” each time. For the same molecule, the Survival in series [15] is 15%; in series [16] it was over 60%.

In general, Kd refers to a measure of binding affinity in units of concentration.

Source of the values: ChEMBL document CHEMBL5653627 (J Neurochem, 2017).
